Marks after values point to notes of the source that are not given here.
Key:
Phytophthora infestans = assay: microbe, parasite or virus in culture; assay type: cell-based; conditions: 8 days incubation
Pythium ultimum = Pythium ultimum in vitro cell test; assay type: cell-based; conditions: 4 days incubation
Experimental: Pythium ultimum In Vitro Cell Test
• Solvent: DMSO • Culture medium: 14.6 g anhydrous D-glucose (VWR), 7.1 g Mycological Peptone (Oxoid), 1.4 g granulated Yeast Extract (Merck), QSP liter • Inoculum: mycelial suspension
Fungicides were solubilized in DMSO and the solution used to prepare the required range of concentrations. The final concentration of DMSO used in the assay was ≤1%.
Inoculum was prepared from a pre-culture of P. ultimum grown in liquid medium by homogenization using a blender. The concentration of ground mycelium in the inoculum was estimated and adjusted to the desired optical density (OD).
Fungicides were evaluated for their ability to inhibit mycelium growth in liquid culture assay. The compounds were added in the desired concentrations to culture medium containing the mycelial suspension. After 4 days of incubation, the fungicidal efficacy of compounds was determined by spectrometric measurement of mycelium growth. Inhibition of fungal growth was determined by comparing the absorbance values in wells containing the fungicides with the absorbance in control wells without fungicides.

[1] = pH 2.7
[2] = 0.25 μg/mL of active ingredient

Compound	Log P [1]	other results
C#CCOc1cccc(F)c1C1CC(c2csc(C3CCN(C(=O)C(C(=O)OCC)n4nc(C(F)F)cc4C(F)F)CC3)n2)=NO1 (stereo not shown) [Example I-04]	3.57^[a]	Eff. % (inhibition of fungal growth) (Phytophthora infestans; [2]): 100%; Eff. % (inhibition of fungal growth) (Pythium ultimum; 20 μg/mL of active ingredient): 92%
CCOC(=O)C(C(=O)N1CCC(c2nc(C3=NOC(c4ccccc4OS(C)(=O)=O)C3)cs2)CC1)n1nc(C(F)(F)F)nc1C (stereo not shown) [Example I-06]	3.14^[a]	Eff. % (inhibition of fungal growth) (Phytophthora infestans; 20 μg/mL of active ingredient): 100%; Eff. % (inhibition of fungal growth) (Pythium ultimum; 20 μg/mL of active ingredient): 94%
C#CCOc1cccc(F)c1C1CC(c2csc(C3CCN(C(=O)C(C(=O)OC(C)C)n4nc(C(F)F)cc4C(F)F)CC3)n2)=NO1 (stereo not shown) [Example I-07]	3.81^[a]	Eff. % (inhibition of fungal growth) (Phytophthora infestans; [2]): 100%; Eff. % (inhibition of fungal growth) (Pythium ultimum; of active ingredient): 97%
C#CCOc1ccccc1C1CC(c2csc(C3CCN(C(=O)C(C(=O)OC(C)C)n4nc(C(F)F)cc4C(F)F)CC3)n2)=NO1 (stereo not shown) [Example I-09]	3.93^[a]	Eff. % (inhibition of fungal growth) (Phytophthora infestans; 20 μg/mL of active ingredient): 98%; Eff. % (inhibition of fungal growth) (Pythium ultimum; 20 μg/mL of active ingredient): 97%
CCCCCC(CC)OC(=O)C(C(=O)N1CCC(c2nc(C3=NOC(c4ccccc4OS(C)(=O)=O)C3)cs2)CC1)n1nc(C(F)F)cc1C(F)F (stereo not shown) [Example I-10]	4.96^[a]	Eff. % (inhibition of fungal growth) (Phytophthora infestans; 20 μg/mL of active ingredient): 97%
CCOC(=O)C(C(=O)N1CCC(c2nc(C3=NOC(c4ccccc4OS(C)(=O)=O)C3)cs2)CC1)n1cc(C(F)(F)F)nc1C (stereo not shown) [Example I-12]	2.99^[a]	
CC(C)OC(=O)C(C(=O)N1CCC(c2nc(C3=NOC(c4ccccc4C=O)C3)cs2)CC1)n1nc(C(F)F)cc1C(F)F (stereo not shown) [Example I-13]	3.70^[a]	Eff. % (inhibition of fungal growth) (Phytophthora infestans; [2]): 94%
CCOC(=O)C(C(=O)N1CCC(c2nc(C3=NOC(c4ccccc4C=O)C3)cs2)CC1)n1nc(C(F)F)cc1C(F)F (stereo not shown) [Example I-14]	3.40^[a]	
C#CCOc1cccc(F)c1C1CC(c2csc(C3CCN(C(=O)C(C(=O)OC(CC)CCCCC)n4nc(C(F)F)cc4C(F)F)CC3)n2)=NO1 (stereo not shown) [Example I-18]	5.22^[a]	
CCOC(=O)C(C(=O)N1CCC(c2nc(C3=NOC(c4ccccc4OS(C)(=O)=O)C3)cs2)CC1)n1nc(C(F)(F)F)cc1C (stereo not shown) [Example I-19]	3.42^[a]	Eff. % (inhibition of fungal growth) (Phytophthora infestans; 20 μg/mL of active ingredient): 100%
CCCCCC(CC)OC(=O)C(C(=O)N1CCC(c2nc(C3=NOC(c4ccccc4C=O)C3)cs2)CC1)n1nc(C(F)F)cc1C(F)F (stereo not shown) [Example I-21]	5.20^[a]	
CCCCCC(CC)OC(=O)C(C(=O)N1CCC(c2nc(C3=NOC(c4c(F)cccc4OS(C)(=O)=O)C3)cs2)CC1)n1nc(C(F)F)cc1C(F)F (stereo not shown) [Example I-22]	4.04^[a]	
CC(C)OC(=O)C(Br)C(=O)N1CCC(c2nc(C3=NOC(c4c(F)cccc4OS(C)(=O)=O)C3)cs2)CC1 (stereo not shown) [Example I-23]	2.97^[a]	Eff. % (inhibition of fungal growth) (Phytophthora infestans; [2]): 100%
C#CCOc1cccc(F)c1C1CC(c2csc(C3CCN(C(=O)C(Br)C(=O)OCCOC)CC3)n2)=NO1 (stereo not shown) [Example I-24]	2.85^[a]	
CCOC(=O)C(Br)C(=O)N1CCC(c2nc(C3=NOC(c4ccccc4C=O)C3)cs2)CC1 (stereo not shown) [Example I-25]	2.82^[a]	Eff. % (inhibition of fungal growth) (Phytophthora infestans; 20 μg/mL of active ingredient): 100%
CCCCCC(CC)OC(=O)C(Br)C(=O)N1CCC(c2nc(C3=NOC(c4ccccc4C=O)C3)cs2)CC1 (stereo not shown) [Example I-28]	4.83^[a]	Eff. % (inhibition of fungal growth) (Phytophthora infestans; 20 μg/mL of active ingredient): 100%
CC(C)OC(=O)C(Br)C(=O)N1CCC(c2nc(C3=NOC(c4ccccc4C=O)C3)cs2)CC1 (stereo not shown) [Example I-29]	3.11^[a]	
C#CCOc1cccc(Cl)c1C1CC(c2csc(C3CCN(C(=O)C(Br)C(=O)OCC)CC3)n2)=NO1 (stereo not shown) [Example I-31]	3.20^[a]	
C#CCOc1ccccc1C1CC(c2csc(C3CCN(C(=O)C(Br)C(=O)OC(C)C)CC3)n2)=NO1 (stereo not shown) [Example I-32]	3.43^[a]	
C#CCOc1cccc(F)c1C1CC(c2csc(C3CCN(C(=O)C(Br)C(=O)OC(CC)CCCCC)CC3)n2)=NO1 (stereo not shown) [Example I-35]	4.89^[a]	
COCCOC(=O)C(Br)C(=O)N1CCC(c2nc(C3=NOC(c4ccccc4OS(C)(=O)=O)C3)cs2)CC1 (stereo not shown) [Example I-36]	2.53^[a]	
CC(C)OC(=O)C(Br)C(=O)N1CCC(c2nc(C3=NOC(c4ccccc4OS(C)(=O)=O)C3)cs2)CC1 (stereo not shown) [Example I-37]	2.99^[a]	
CCCCCC(CC)OC(=O)C(Br)C(=O)N1CCC(c2nc(C3=NOC(c4ccccc4OS(C)(=O)=O)C3)cs2)CC1 (stereo not shown) [Example I-39]	4.55^[a]	
C#CCOc1cccc(F)c1C1CC(c2csc(C3CCN(C(=O)CC(=O)OCCOC)CC3)n2)=NO1 (stereo not shown) [Example I-43]	2.43^[a]	
CCCCCC(CC)OC(=O)CC(=O)N1CCC(c2nc(C3=NOC(c4ccccc4OS(C)(=O)=O)C3)cs2)CC1 (stereo not shown) [Example I-45]	4.07^[a]	Eff. % (inhibition of fungal growth) (Phytophthora infestans; 20 μg/mL of active ingredient): 100%
CCCCCC(CC)OC(=O)CC(=O)N1CCC(c2nc(C3=NOC(c4c(F)cccc4OS(C)(=O)=O)C3)cs2)CC1 (stereo not shown) [Example I-48]	4.03^[a]	

Compound	Log P [1]	other results
CCOC(=O)CC(=O)N1CCC(c2nc(C3=NOC(c4ccccc4C=O)C3)cs2)CC1 (stereo not shown) [Example I-53]	2.34^[a]	Eff. % (inhibition of fungal growth) (Phytophthora infestans; 20 μg/mL of active ingredient): 100%
CCOC(=O)CC(=O)N1CCC(c2nc(C3=NOC(c4c(F)cccc4OS(C)(=O)=O)C3)cs2)CC1 (stereo not shown) [Example I-54]	2.29^[a]	
C#CCOc1ccccc1C1CC(c2csc(C3CCN(C(=O)CC(=O)OC(CC)CCCCC)CC3)n2)=NO1 (stereo not shown) [Example I-57]	4.56^[a]	
CC(C)OC(=O)CC(=O)N1CCC(c2nc(C3=NOC(c4ccccc4OS(C)(=O)=O)C3)cs2)CC1 (stereo not shown) [Example I-58]	2.56^[a]	Eff. % (inhibition of fungal growth) (Phytophthora infestans; 20 μg/mL of active ingredient): 100%
C#CCOc1cccc(Cl)c1C1CC(c2csc(C3CCN(C(=O)C(C(=O)OCc4ccccc4)n4nc(C(F)F)cc4C(F)F)CC3)n2)=NO1 (stereo not shown) [Example I-59]	4.28^[a]	Eff. % (inhibition of fungal growth) (Phytophthora infestans; [2]): 100%
CS(=O)(=O)Oc1cccc(Cl)c1C1CC(c2csc(C3CCN(C(=O)C(C(=O)OCc4ccccc4)n4nc(C(F)F)cc4C(F)F)CC3)n2)=NO1 (stereo not shown) [Example I-61]	3.98^[a]	Eff. % (inhibition of fungal growth) (Phytophthora infestans; [2]): 100%
C#CCOc1ccccc1C1CC(c2csc(C3CCN(C(=O)C(C(=O)OCc4ccccc4)n4nc(C(F)F)cc4C(F)F)CC3)n2)=NO1 (stereo not shown) [Example I-62]	4.16^[a]	Eff. % (inhibition of fungal growth) (Phytophthora infestans; [2]): 100%
CC(C)(C)OC(=O)C(C(=O)N1CCC(c2nc(C3=NOC(c4c(Cl)cccc4OS(C)(=O)=O)C3)cs2)CC1)n1nc(C(F)F)cc1C(F)F (stereo not shown) [Example I-64]	4.00^[a]	Eff. % (inhibition of fungal growth) (Phytophthora infestans; [2]): 100%
CC(C)(C)OC(=O)C(C(=O)N1CCC(c2nc(C3=NOC(c4ccccc4OS(C)(=O)=O)C3)cs2)CC1)n1nc(C(F)F)cc1C(F)F (stereo not shown) [Example I-66]	3.74^[a]	Eff. % (inhibition of fungal growth) (Phytophthora infestans; [2]): 100%
CS(=O)(=O)Oc1cccc(Cl)c1C1CC(c2csc(C3CCN(C(=O)C(Br)C(=O)OCc4ccccc4)CC3)n2)=NO1 (stereo not shown) [Example I-67]	3.54^[a]	
CS(=O)(=O)Oc1ccccc1C1CC(c2csc(C3CCN(C(=O)C(Br)C(=O)OCc4ccccc4)CC3)n2)=NO1 (stereo not shown) [Example I-68]	3.31^[a]	
C#CCOc1cccc(Cl)c1C1CC(c2csc(C3CCN(C(=O)C(Br)C(=O)OCc4ccccc4)CC3)n2)=NO1 (stereo not shown) [Example I-69]	3.85^[a]	
C#CCOc1ccccc1C1CC(c2csc(C3CCN(C(=O)C(Br)C(=O)OCc4ccccc4)CC3)n2)=NO1 (stereo not shown) [Example I-70]	3.72^[a]	
C#CCOc1cccc(Cl)c1C1CC(c2csc(C3CCN(C(=O)C(Br)C(=O)OC(C)(C)C)CC3)n2)=NO1 (stereo not shown) [Example I-71]	3.84^[a]	Eff. % (inhibition of fungal growth) (Phytophthora infestans; [2]): 100%
CC(C)(C)OC(=O)C(Br)C(=O)N1CCC(c2nc(C3=NOC(c4c(Cl)cccc4OS(C)(=O)=O)C3)cs2)CC1 (stereo not shown) [Example I-72]	3.50^[a]	
C#CCOc1ccccc1C1CC(c2csc(C3CCN(C(=O)C(Br)C(=O)OC(C)(C)C)CC3)n2)=NO1 (stereo not shown) [Example I-73]	3.68^[a]	
CC(C)(C)OC(=O)C(Br)C(=O)N1CCC(c2nc(C3=NOC(c4ccccc4OS(C)(=O)=O)C3)cs2)CC1 (stereo not shown) [Example I-74]	3.24^[a]	
CS(=O)(=O)Oc1ccccc1C1CC(c2csc(C3CCN(C(=O)CC(=O)OCc4ccccc4)CC3)n2)=NO1 (stereo not shown) [Example I-75]	2.89^[a]	
CS(=O)(=O)Oc1cccc(Cl)c1C1CC(c2csc(C3CCN(C(=O)CC(=O)OCc4ccccc4)CC3)n2)=NO1 (stereo not shown) [Example I-76]	3.12^[a]	
C#CCOc1ccccc1C1CC(c2csc(C3CCN(C(=O)CC(=O)OCc4ccccc4)CC3)n2)=NO1 (stereo not shown) [Example I-77]	3.30^[a]	
C#CCOc1cccc(Cl)c1C1CC(c2csc(C3CCN(C(=O)CC(=O)OCc4ccccc4)CC3)n2)=NO1 (stereo not shown) [Example I-78]	3.45^[a]	Eff. % (inhibition of fungal growth) (Phytophthora infestans; [2]): 88%
CC(C)(C)OC(=O)CC(=O)N1CCC(c2nc(C3=NOC(c4c(Cl)cccc4OS(C)(=O)=O)C3)cs2)CC1 (stereo not shown) [Example I-79]	3.04^[a]	
C#CCOc1cccc(Cl)c1C1CC(c2csc(C3CCN(C(=O)CC(=O)OC(C)(C)C)CC3)n2)=NO1 (stereo not shown) [Example I-80]	3.36^[a]	Eff. % (inhibition of fungal growth) (Phytophthora infestans; [2]): 100%
CC(C)(C)OC(=O)CC(=O)N1CCC(c2nc(C3=NOC(c4ccccc4OS(C)(=O)=O)C3)cs2)CC1 (stereo not shown) [Example I-81]	2.80^[a]	
C#CCOc1ccccc1C1CC(c2csc(C3CCN(C(=O)CC(=O)OC(C)(C)C)CC3)n2)=NO1 (stereo not shown) [Example I-82]	3.22^[a]	

Source: US9924721B2 (priority 2013, dated 2018)
